Measurements taken from the supplement of paper PMC4862054.

How the values were obtained:
Experiment in all cases: normalised response (% of control), CellTiter-Glo; higher = more viable cells (100 = DMSO, 0 = benzethonium chloride kill control)
Conditions in all cases: incubation time: 72 h
BT-474 = tested on: BT-474
How it was run: (§1)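 Breast cancer cell lines in 20 µl suspension were added to 384-well plates containing compound at 5 concentrations, spaced in 10-fold steps across a 10,000-fold range chosen for each compound, and incubated for 72 h. CellTox Green fluorescence was read at 485/520 nm, followed by CellTiter-Glo luminescence after 10 min at room temperature. Signals on each plate were normalised so that 0.1 % DMSO equals 100 and a positive kill control equals 0. Every value in the table is the normalised signal at one concentration of the series.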

BT-549 = tested on: BT-549
How it was run: as §1

CAL-120 = tested on: CAL-120
How it was run: as §1

CAL-148 = tested on: CAL-148
How it was run: as §1

CAL-51 = tested on: CAL-51
How it was run: as §1

CAL-85-1 = tested on: CAL-85-1
How it was run: as §1

DU-4475 = tested on: DU-4475
How it was run: as §1

HCC1143 = tested on: HCC1143
How it was run: as §1

HCC1599 = tested on: HCC1599
How it was run: as §1

HCC1937 = tested on: HCC1937
How it was run: as §1

HDQ-P1 = tested on: HDQ-P1
How it was run: as §1

Hs578T = tested on: Hs578T
How it was run: as §1

MCF-10A = tested on: MCF-10A
How it was run: as §1

MDA-MB-231 = tested on: MDA-MB-231
How it was run: as §1

MDA-MB-436 = tested on: MDA-MB-436
How it was run: as §1

MDA-MB-453 = tested on: MDA-MB-453
How it was run: as §1

MDA-MB-468 = tested on: MDA-MB-468
How it was run: as §1

MFM-223 = tested on: MFM-223
How it was run: as §1

SK-BR-3 = tested on: SK-BR-3
How it was run: as §1

Row | Structure (SMILES) | normalised response (BT-474) | normalised response (BT-549) | normalised response (CAL-120) | normalised response (CAL-148) | normalised response (CAL-51) | normalised response (CAL-85-1) | normalised response (DU-4475) | normalised response (HCC1143) | normalised response (HCC1599) | normalised response (HCC1937) | normalised response (HDQ-P1) | normalised response (Hs578T) | normalised response (MCF-10A) | normalised response (MDA-MB-231) | normalised response (MDA-MB-436) | normalised response (MDA-MB-453) | normalised response (MDA-MB-468) | normalised response (MFM-223) | normalised response (SK-BR-3)
1 | CCCCCCCCc1ccc(CCC(N)(CO)CO)cc1 [Fingolimod] (1 nM) | 97.7% | 106% | 96.4% | 97.3% | 97.7% | 103% | 101% | 96.8% | 106% | 95.9% | 98.6% | 100% | 103% | 98% | 92.8% | 109% | 107% | 103% | 102%
2 | CN(C)CCN1C(=O)c2cccc3cc(N)cc(c23)C1=O [Amonafide] (10 nM) | 98.7% | 100% | 97% | 86.5% | 123% | 98% | 99.7% | 101% | 95% | 96.9% | 100% | 99.8% | 97.6% | 102% | 103% | 98.6% | 93% | 99.8% | 
3 | CC(C)c1c(C(=O)Nc2ccccc2)c(-c2ccccc2)c(-c2ccc(F)cc2)n1CC[C@@H](O)C[C@@H](O)CC(=O)O [Atorvastatin] (10 nM) | 100% | 90% | 96.8% | 101% | 76.1% | 98.9% | 98.7% | 103% | 104% | 99.7% | 101% | 101% | 100% | 96.9% | 96.5% | 104% | 104% | 102% | 102%
4 | Cn1cncc1[C@@](N)(c1ccc(Cl)cc1)c1ccc2c(c1)c(-c1cccc(Cl)c1)cc(=O)n2C [Tipifarnib] (10 nM) | 94.4% | 98.9% | 93.1% | 96.7% | 121% | 108% | 102% | 101% | 94.3% | 82.3% | 87.7% | 95.8% | 92.3% | 98.6% | 88.7% | 84.6% | 94% | 95.2% | 85.1%
5 | C/C(=C\c1csc(C)n1)[C@@H]1C[C@@H]2O[C@]2(C)CCC[C@H](C)[C@H](O)[C@@H](C)C(=O)C(C)(C)[C@@H](O)CC(=O)O1 [Patupilone] (1 nM) | 104% | 97.3% | 103% | 106% | 99.2% | 105% | 106% | 111% | 117% | 103% | 97.3% | 104% | 106% | 107% | 108% | 107% | 109% | 101% | 
6 | CNNCc1ccc(C(=O)NC(C)C)cc1 [Procarbazine] (10 nM) | 97.9% | 100% | 102% | 108% | 66.9% | 99% | 107% | 105% | 91.3% | 107% | 109% | 101% | 103% | 106% | 97.2% | 95.8% | 113% | 104% | 109%
7 | Cn1c(=O)n(-c2ccc(C(C)(C)C#N)cc2)c2c3cc(-c4cnc5ccccc5c4)ccc3ncc21 [Dactolisib] (1 nM) | 106% | 101% | 90.2% | 116% | 83.4% | 101% | 107% | 98.5% | 95.8% | 98.7% | 95% | 95.7% | 113% | 107% | 95.8% | 110% | 103% | 108% | 
8 | COc1ccc(-c2ccc3c(N4CCOC[C@@H]4C)nc(N4CCOC[C@@H]4C)nc3n2)cc1CO [AZD8055] (10 nM) | 84.8% | 77.9% | 81.1% | 82.5% | 92.8% | 85.4% | 92% | 86.8% | 98.3% | 84.2% | 74.6% | 92.2% | 87% | 88% | 76.5% | 79.3% | 80.1% | 77.8% | 53.5%
9 | Nc1nc(OCc2cc(Br)cs2)c2[nH]cnc2n1 [Lomeguatrib] (1 nM) | 100% | 103% | 101% | 92.5% | 118% | 99.9% | 99.2% | 97.6% | 90.9% | 103% | 104% | 99% | 108% | 101% | 110% | 97.6% | 96.2% | 102% | 102%
10 | CC[C@]1(O)C[C@H]2CN(CCc3c([nH]c4ccccc34)[C@@](C(=O)OC)(c3cc4c(cc3OC)N(C=O)[C@H]3[C@@](O)(C(=O)OC)[C@H](OC(C)=O)[C@]5(CC)C=CCN6CC[C@]43[C@@H]65)C2)C1 [Vincristine] (1 nM) | 100% | 87.6% | 96.4% | 110% | 91.4% | 102% | 106% | 104% | 113% | 96.3% | 97.6% | 105% | 104% | 99.4% | 106% | 104% | 95.3% | 104% | 
11 | Nc1nc(OCc2cc(Br)cs2)c2[nH]cnc2n1 [Lomeguatrib] (10 nM) | 104% | 93.5% | 101% | 105% | 69.8% | 94.2% | 104% | 101% | 91.8% | 98.9% | 104% | 105% | 109% | 98.5% | 103% | 97.3% | 101% | 97.4% | 105%
12 | CC(C)(C#N)c1cc(Cn2cncn2)cc(C(C)(C)C#N)c1 [Anastrozole] (1 nM) | 100% | 109% | 101% | 94.8% | 89.9% | 102% | 105% | 95.5% | 110% | 99.7% | 103% | 99.3% | 102% | 96.7% | 95.2% | 112% | 102% | 106% | 111%
13 | O=C1NC(=O)[C@@H](c2cn3c4c(cccc24)CCC3)[C@@H]1c1c[nH]c2ccccc12 [Tivantinib] (1 nM) | 107% | 101% | 100% | 100% | 106% | 96.1% | 98% | 98.9% | 104% | 101% | 98.7% | 101% | 106% | 98.2% | 109% | 106% | 104% | 97.9% | 113%
14 | O=C(O)CCCc1ccc(N(CCCl)CCCl)cc1 [Chlorambucil] (10 nM) | 99.1% | 102% | 97.2% | 101% | 95.2% | 108% | 101% | 102% | 97.8% | 98.8% | 99.7% | 103% | 93.6% | 106% | 104% | 101% | 101% | 108% | 
15 | Cn1c(=O)n(-c2ccc(C(C)(C)C#N)cc2)c2c3cc(-c4cnc5ccccc5c4)ccc3ncc21 [Dactolisib] (0.1 nM) | 104% | 100% | 97.4% | 102% | 107% | 101% | 103% | 97.4% | 122% | 98.8% | 102% | 102% | 105% | 105% | 99.6% | 109% | 110% | 108% | 111%
16 | CCCCCCCCc1ccc(CCC(N)(CO)CO)cc1 [Fingolimod] (10 nM) | 99.7% | 98.1% | 95.5% | 94.5% | 125% | 111% | 103% | 99.5% | 120% | 100% | 104% | 103% | 105% | 99.2% | 94.5% | 105% | 94.2% | 101% | 105%
17 | c1ccc([C@H]2CN3CCSC3=N2)cc1 [Levamisole] (10 nM) | 106% | 99% | 100% | 114% | 78.9% | 95.6% | 103% | 99.5% | 99.5% | 103% | 97% | 105% | 110% | 99.3% | 106% | 117% | 102% | 110% | 95.1%
18 | c1ccc([C@H]2CN3CCSC3=N2)cc1 [Levamisole] (1 nM) | 106% | 106% | 98.1% | 113% | 69.9% | 99.9% | 105% | 103% | 106% | 99.4% | 104% | 105% | 107% | 107% | 97.4% | 112% | 112% | 106% | 109%
19 | CNNCc1ccc(C(=O)NC(C)C)cc1 [Procarbazine] (1 nM) | 102% | 111% | 101% | 104% | 88.6% | 103% | 103% | 112% | 109% | 111% | 104% | 108% | 111% | 104% | 101% | 108% | 104% | 105% | 112%
20 | CC[C@]1(O)C[C@H]2CN(CCc3c([nH]c4ccccc34)[C@@](C(=O)OC)(c3cc4c(cc3OC)N(C=O)[C@H]3[C@@](O)(C(=O)OC)[C@H](OC(C)=O)[C@]5(CC)C=CCN6CC[C@]43[C@@H]65)C2)C1 [Vincristine] (0.1 nM) | 97.8% | 99.5% | 94.7% | 109% | 88.2% | 99.1% | 106% | 103% | 92.7% | 94.1% | 99.9% | 110% | 105% | 104% | 116% | 107% | 112% | 102% | 102%
21 | Nc1ncnc2c1c(COc1cccc(Cl)c1)nn2C1CCOCC1 (10 nM) | 101% | 98.2% | 96.6% | 115% | 94.8% | 101% | 105% | 105% | 101% | 97.7% | 99.1% | 108% | 114% | 107% | 105% | 104% | 106% | 105% | 
